Experimental data reported in the NIST ThermoML archive (doi:10.1007/s10765-011-1087-7).
Numbers after ± are expanded uncertainties.

Columns and labels:
[1] = xn = mol fraction of the nth substance listed; settings: 101 kPa, Liquid, x1 = 1; for speed of sound: Pulse-echo method
[2] = refractive index (Na D-line) (dimensionless); xn = mol fraction of the nth substance listed; settings: 101 kPa, Liquid, x1 = 1
[3] = 101 kPa, Liquid; for viscosity: Capillary tube (Ostwald / Ubbelohde) method; for speed of sound: Pulse-echo method
[4] = refractive index (Na D-line) (dimensionless); settings: 101.33 kPa, Liquid

Row | Compound | speed of sound ([1]; 298.15 K) [m/s] | mass density ([1]; 298.15 K) [kg/m3] | viscosity ([1]; 298.15 K) [mPa·s] | speed of sound ([1]; 303.15 K) [m/s] | mass density ([1]; 303.15 K) [kg/m3] | viscosity ([1]; 303.15 K) [mPa·s] | speed of sound ([1]; 308.15 K) [m/s] | mass density ([1]; 308.15 K) [kg/m3] | mass density ([3]; 298.15 K) [kg/m3] | viscosity ([3]; 298.15 K) [mPa·s] | speed of sound ([3]; 298.15 K) [m/s] | mass density ([3]; 303.15 K) [kg/m3] | viscosity ([3]; 303.15 K) [mPa·s] | speed of sound ([3]; 303.15 K) [m/s] | mass density ([3]; 308.15 K) [kg/m3] | viscosity ([3]; 308.15 K) [mPa·s] | speed of sound ([3]; 308.15 K) [m/s] | refractive index ([4]; 298.15 K) | refractive index ([4]; 303.15 K) | refractive index ([4]; 308.15 K) | other results
1 | Clc1ccccc1Cl [1,2-dichlorobenzene] + CCCCCCC(C)O | 1281.6 ± 1.3 | 1300.3 ± 0.87 | 1.314 ± 0.047 | 1265.2 ± 1.3 | 1294.72 ± 0.86 | 1.235 ± 0.045 | 1245.9 ± 1.3 | 1289.13 ± 0.85 |  |  |  |  |  |  |  |  |  |  |  |  | viscosity ([1]; 308.15 K): 1.144 ± 0.042 mPa·s; refractive index ([2]; 298.15 K): 1.546 ± 0.0012; refractive index ([2]; 303.15 K): 1.544 ± 0.0012; refractive index ([2]; 308.15 K): 1.541 ± 0.0012
2 | Clc1cccc(Cl)c1 [1,3-dichlorobenzene] + CCCCCCC(C)O | 1255 ± 1.3 | 1283.45 ± 0.84 | 1.014 ± 0.075 | 1238.4 ± 1.3 | 1277.79 ± 0.82 | 0.946 ± 0.071 | 1221.9 ± 1.3 | 1272.1 ± 0.81 |  |  |  |  |  |  |  |  |  |  |  |  | viscosity ([1]; 308.15 K): 0.891 ± 0.067 mPa·s; refractive index ([2]; 298.15 K): 1.544 ± 0.0012; refractive index ([2]; 303.15 K): 1.541 ± 0.0012; refractive index ([2]; 308.15 K): 1.538 ± 0.0012
3 | CCCCCCC(C)O (configuration not stated) [2-octanol] |  |  |  |  |  |  |  |  | 816.39 ± 0.57 | 6.566 ± 0.072 | 1307 ± 1 | 812.58 ± 0.58 | 5.178 ± 0.061 | 1289 ± 1 | 808.74 ± 0.59 | 4.162 ± 0.051 | 1271 ± 1 | 1.4226 ± 0.0012 | 1.4206 ± 0.0012 | 1.4185 ± 0.0012 | 
4 | Clc1ccc(Cl)c(Cl)c1 [1,2,4-trichlorobenzene] |  |  |  |  |  |  |  |  | 1448.41 ± 1.1 | 1.926 ± 0.012 | 1272 ± 1.2 | 1442.43 ± 1.1 | 1.76 ± 0.012 | 1256.4 ± 1.2 | 1436.45 ± 1.1 | 1.617 ± 0.011 | 1240.9 ± 1.2 | 1.548 ± 0.0012 | 1.546 ± 0.0012 | 1.543 ± 0.0012 | 
5 | Clc1ccccc1Cl [1,2-dichlorobenzene] |  |  |  |  |  |  |  |  | 1300.3 ± 0.87 | 1.314 ± 0.01 | 1281.6 ± 1.3 | 1294.72 ± 0.86 | 1.235 ± 0.01 | 1265.2 ± 1.3 | 1289.13 ± 0.85 | 1.144 ± 0.009 | 1245.9 ± 1.3 | 1.546 ± 0.0012 | 1.544 ± 0.0012 | 1.541 ± 0.0012 | 
6 | Clc1cccc(Cl)c1 [1,3-dichlorobenzene] |  |  |  |  |  |  |  |  | 1283.45 ± 0.84 | 1.014 ± 0.009 | 1255 ± 1.3 | 1277.79 ± 0.82 | 0.946 ± 0.008 | 1238.4 ± 1.3 | 1272.1 ± 0.81 | 0.891 ± 0.008 | 1221.9 ± 1.3 | 1.544 ± 0.0012 | 1.541 ± 0.0012 | 1.538 ± 0.0012 | 
